Measurements reported in ChEMBL document CHEMBL3045813, “Study of the inactivation of copper, zinc superoxide dismutase by tetracycline analogues” (Med Chem Res, 2008).
Activity calls are given as the source filed them. The calls are words filed in the database; no cut-off is given here.

Legend:
[1] = molecular target: Superoxide dismutase [Cu-Zn] (Homo sapiens) (UniProt P00441); assay: Binding affinity to Superoxide dismutase [Cu-Zn] (unknown origin) after 10 min at 37 degC by Stern-Volmer plot analysis
Chain of Superoxide dismutase [Cu-Zn] (Homo sapiens) (P00441 whole entry): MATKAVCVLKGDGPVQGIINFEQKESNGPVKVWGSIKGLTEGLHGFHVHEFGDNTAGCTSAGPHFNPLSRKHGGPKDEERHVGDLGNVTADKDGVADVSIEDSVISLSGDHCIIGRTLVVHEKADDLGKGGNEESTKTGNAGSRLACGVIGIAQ

Oryctolagus cuniculus [2] = species on record: Oryctolagus cuniculus; assay: Inactivation of New Zealand white Oryctolagus cuniculus (rabbit) Superoxide dismutase [Cu-Zn] at 28.8 mg QD for 7 days measured after 7 days by pyrogallol-oxidation method; type: functional, organism-based
[3] = molecular target: Superoxide dismutase [Cu-Zn] (Homo sapiens) (UniProt P00441); assay: Binding affinity to Superoxide dismutase [Cu-Zn] (unknown origin) after 10 min at 30 degC by Stern-Volmer plot analysis
[4] = molecular target: Superoxide dismutase [Cu-Zn] (Homo sapiens) (UniProt P00441); assay: Binding affinity to Superoxide dismutase [Cu-Zn] (unknown origin) at 3.86 10^-5 mol/l after 10 min by UV-Vis spectrophotometric analysis
[5] = molecular target: Superoxide dismutase [Cu-Zn] (Homo sapiens) (UniProt P00441); assay: Binding affinity to Superoxide dismutase [Cu-Zn] (unknown origin) after 10 min at 20 degC by Stern-Volmer plot analysis
[6] = molecular target: Superoxide dismutase [Cu-Zn] (Homo sapiens) (UniProt P00441); assay: Binding affinity to Superoxide dismutase [Cu-Zn] (unknown origin) at 3.86 10^-5 mol/l after 10 min by fluorometric analysis
Oryctolagus cuniculus [7] = species on record: Oryctolagus cuniculus; assay: Inactivation of New Zealand white Oryctolagus cuniculus (rabbit) Superoxide dismutase [Cu-Zn] at 28.8 mg QD for 7 days measured up to 7 days by pyrogallol-oxidation method; type: functional, organism-based

Kq [1] | Activity (Oryctolagus cuniculus [2]) | Kq [3] | Activity [4] | Kq [5] | Activity [6] | Activity (Oryctolagus cuniculus [7]) | K [1] | K [3] | K [5] | Structure (SMILES)
5.25 ×10¹² L/mol/s | inactive | 5.3 ×10¹² L/mol/s | Active | 5.97 ×10¹² L/mol/s | Active | Active |  |  |  | CN(C)[C@@H]1C(O)=C(C(N)=O)C(=O)[C@@]2(O)C(O)=C3C(=O)c4c(O)cccc4[C@@](C)(O)[C@H]3C[C@@H]12
3.96 ×10¹² L/mol/s |  | 4.22 ×10¹² L/mol/s | Active | 4.37 ×10¹² L/mol/s | Active |  | 3.62 ×10⁴ L/mol | 8.93 ×10⁴ L/mol | 1.44 ×10⁵ L/mol | CN(C)[C@@H]1C(O)=C(C(N)=O)C(=O)[C@@]2(O)C(O)=C3C(=O)c4c(O)cccc4[C@@](C)(O)[C@H]3[C@H](O)[C@@H]12
6.42 ×10¹² L/mol/s |  | 7.73 ×10¹² L/mol/s | Active | 1.01 ×10¹³ L/mol/s | Active |  | 1.34 ×10⁶ L/mol | 7.9 ×10⁶ L/mol | 6.73 ×10⁷ L/mol | C[C@H]1c2cccc(O)c2C(=O)C2=C(O)[C@]3(O)C(=O)C(C(N)=O)=C(O)[C@@H](N(C)C)[C@@H]3[C@@H](O)[C@@H]21
